{
  "source": "ChEMBL document CHEMBL1201862",
  "about": "“PubChem BioAssay data set” (2004)",
  "experiment_in_all_cases": "inhibition of tumour cell growth, NCI panel, 48 h",
  "key": {"Hs-578T": {"system": "Hs-578T"}, "EKVX": {"system": "EKVX"}, "SK-OV-3": {"system": "SK-OV-3"}, "IGROV-1": {"system": "IGROV-1"}, "UACC-62": {"system": "UACC-62"}, "HOP-92": {"system": "HOP-92"}, "LOX IMVI": {"system": "LOX IMVI"}, "CAKI-1": {"system": "CAKI-1"}, "HOP-18": {"system": "HOP-18"}, "SNB-19": {"system": "SNB-19"}, "U-251": {"system": "U-251"}, "TK-10": {"system": "TK-10"}, "SK-MEL-28": {"system": "SK-MEL-28"}, "UACC-257": {"system": "UACC-257"}, "HOP-62": {"system": "HOP-62"}, "HCT-15": {"system": "HCT-15"}, "SF-295": {"system": "SF-295"}, "HCC 2998": {"system": "HCC 2998"}, "SNB-78": {"system": "SNB-78"}, "UO-31": {"system": "UO-31"}, "RPMI-8226": {"system": "RPMI-8226"}, "M14": {"system": "M14"}, "COLO 205": {"system": "COLO 205"}, "MDA-MB-231": {"system": "MDA-MB-231"}, "HL-60": {"system": "HL-60"}, "K562": {"system": "K562"}, "A498": {"system": "A498"}, "XF498": {"system": "XF498"}, "LXFL 529": {"system": "LXFL 529"}, "MDA-MB-435": {"system": "MDA-MB-435"}, "SN12C": {"system": "SN12C"}, "DU-145": {"system": "DU-145"}, "DMS-114": {"system": "DMS-114"}, "SK-MEL-2": {"system": "SK-MEL-2"}, "SK-MEL-5": {"system": "SK-MEL-5"}, "NCI-H522": {"system": "NCI-H522"}, "NCI-H226": {"system": "NCI-H226"}, "KM-20L2": {"system": "KM-20L2"}, "HT-29": {"system": "HT-29"}, "OVCAR-3": {"system": "OVCAR-3"}, "RXF 393": {"system": "RXF 393"}, "M19-MEL": {"system": "M19-MEL"}, "PC-3": {"system": "PC-3"}, "RXF 631": {"system": "RXF 631"}, "Malme-3M": {"system": "Malme-3M"}, "T47D": {"system": "T47D"}, "MCF7": {"system": "MCF7"}, "786-0": {"system": "786-0"}, "A549": {"system": "A549"}, "DMS-273": {"system": "DMS-273"}, "SF-268": {"system": "SF-268"}, "NCI-H23": {"system": "NCI-H23"}, "OVCAR-4": {"system": "OVCAR-4"}, "OVCAR-5": {"system": "OVCAR-5"}, "SW-620": {"system": "SW-620"}, "OVCAR-8": {"system": "OVCAR-8"}, "SNB-75": {"system": "SNB-75"}, "DLD-1": {"system": "DLD-1"}, "MDA-N": {"system": "MDA-N"}, "KM12": {"system": "KM12"}, "CCRF-CEM": {"system": "CCRF-CEM"}, "BT-549": {"system": "BT-549"}, "NCI-H460": {"system": "NCI-H460"}, "HCT-116": {"system": "HCT-116"}, "MOLT-4": {"system": "MOLT-4"}, "NCI/ADR-RES": {"system": "NCI/ADR-RES"}, "SF-539": {"system": "SF-539"}, "ACHN": {"system": "ACHN"}, "SR": {"system": "SR"}},
  "note": "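1) Cells in 96-well plates. 2) Compound, 48 h, 5 concentrations. 3) Linear interpolation between surrounding doses. 4) Unreached endpoint = highest concentration. GI50: concentration for 50% inhibition of growth.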 Calls of active or inactive are those of the source. Cut-off read from the data, not from the text of the source: active = GI50 up to about 1.1 µM and inactive = higher.",
  "data": [
    {"molecule": "COc1cc(/C=C2\\CCC(CN(C)C)C2=O)ccc1OC(=O)c1ccccc1", "note": "(centres undefined)", "values": [
      {"measurement": "GI50", "setting": "Hs-578T", "value": "8.02 µM (inactive)"},
      {"measurement": "GI50", "setting": "EKVX", "value": "14.2 µM (inactive)"},
      {"measurement": "GI50", "setting": "SK-OV-3", "value": "23.1 µM (inactive)"},
      {"measurement": "GI50", "setting": "IGROV-1", "value": "13.8 µM (inactive)"},
      {"measurement": "GI50", "setting": "UACC-62", "value": "16.5 µM (inactive)"},
      {"measurement": "GI50", "setting": "HOP-92", "value": "17.4 µM (inactive)"},
      {"measurement": "GI50", "setting": "LOX IMVI", "value": "3.86 µM (inactive)"},
      {"measurement": "GI50", "setting": "CAKI-1", "value": "17.1 µM (inactive)"},
      {"measurement": "GI50", "setting": "HOP-18", "value": "16.9 µM (inactive)"},
      {"measurement": "GI50", "setting": "SNB-19", "value": "11.4 µM (inactive)"},
      {"measurement": "GI50", "setting": "U-251", "value": "16.2 µM (inactive)"},
      {"measurement": "GI50", "setting": "TK-10", "value": "11.3 µM (inactive)"},
      {"measurement": "GI50", "setting": "SK-MEL-28", "value": "15.1 µM (inactive)"},
      {"measurement": "GI50", "setting": "UACC-257", "value": "13.5 µM (inactive)"},
      {"measurement": "GI50", "setting": "HOP-62", "value": "16.3 µM (inactive)"},
      {"measurement": "GI50", "setting": "HCT-15", "value": 8.17, "unit": "µM"},
      {"measurement": "GI50", "setting": "SF-295", "value": "17.7 µM (inactive)"},
      {"measurement": "GI50", "setting": "HCC 2998", "value": "16.3 µM (inactive)"},
      {"measurement": "GI50", "setting": "SNB-78", "value": "19.2 µM (inactive)"},
      {"measurement": "GI50", "setting": "UO-31", "value": "16.3 µM (inactive)"},
      {"measurement": "GI50", "setting": "RPMI-8226", "value": "2.31 µM (inactive)"},
      {"measurement": "GI50", "setting": "M14", "value": "9.51 µM (inactive)"},
      {"measurement": "GI50", "setting": "COLO 205", "value": "5.69 µM (inactive)"},
      {"measurement": "GI50", "setting": "MDA-MB-231", "value": "5.47 µM (inactive)"},
      {"measurement": "GI50", "setting": "HL-60", "value": "1.91 µM (inactive)"},
      {"measurement": "GI50", "setting": "K562", "value": "2.32 µM (inactive)"},
      {"measurement": "GI50", "setting": "A498", "value": "18.3 µM (inactive)"},
      {"measurement": "GI50", "setting": "XF498", "value": "20.3 µM (inactive)"},
      {"measurement": "GI50", "setting": "LXFL 529", "value": "2.88 µM (inactive)"},
      {"measurement": "GI50", "setting": "MDA-MB-435", "value": "14.3 µM (inactive)"},
      {"measurement": "GI50", "setting": "SN12C", "value": "10.8 µM (inactive)"},
      {"measurement": "GI50", "setting": "DU-145", "value": "16.3 µM (inactive)"},
      {"measurement": "GI50", "setting": "DMS-114", "value": "15.8 µM (inactive)"},
      {"measurement": "GI50", "setting": "SK-MEL-2", "value": "17.9 µM (inactive)"},
      {"measurement": "GI50", "setting": "SK-MEL-5", "value": "15.5 µM (inactive)"},
      {"measurement": "GI50", "setting": "NCI-H522", "value": "4 µM (inactive)"},
      {"measurement": "GI50", "setting": "NCI-H226", "value": "18.2 µM (inactive)"},
      {"measurement": "GI50", "setting": "KM-20L2", "value": "15.9 µM (inactive)"},
      {"measurement": "GI50", "setting": "HT-29", "value": "8.07 µM (inactive)"},
      {"measurement": "GI50", "setting": "OVCAR-3", "value": "8.91 µM (inactive)"},
      {"measurement": "GI50", "setting": "RXF 393", "value": "7.8 µM (inactive)"},
      {"measurement": "GI50", "setting": "M19-MEL", "value": "8.57 µM (inactive)"},
      {"measurement": "GI50", "setting": "PC-3", "value": "16.4 µM (inactive)"},
      {"measurement": "GI50", "setting": "RXF 631", "value": "11.2 µM (inactive)"},
      {"measurement": "GI50", "setting": "Malme-3M", "value": "15.9 µM (inactive)"},
      {"measurement": "GI50", "setting": "T47D", "value": "3.76 µM (inactive)"},
      {"measurement": "GI50", "setting": "MCF7", "value": "6.25 µM (inactive)"},
      {"measurement": "GI50", "setting": "786-0", "value": "3.76 µM (inactive)"},
      {"measurement": "GI50", "setting": "A549", "value": "23.6 µM (inactive)"},
      {"measurement": "GI50", "setting": "DMS-273", "value": "11.1 µM (inactive)"},
      {"measurement": "GI50", "setting": "SF-268", "value": "12.3 µM (inactive)"},
      {"measurement": "GI50", "setting": "NCI-H23", "value": "16.1 µM (inactive)"},
      {"measurement": "GI50", "setting": "OVCAR-4", "value": "12.4 µM (inactive)"},
      {"measurement": "GI50", "setting": "OVCAR-5", "value": "18.8 µM (inactive)"},
      {"measurement": "GI50", "setting": "SW-620", "value": "5.07 µM (inactive)"},
      {"measurement": "GI50", "setting": "OVCAR-8", "value": "8.59 µM (inactive)"},
      {"measurement": "GI50", "setting": "SNB-75", "value": "16 µM (inactive)"},
      {"measurement": "GI50", "setting": "DLD-1", "value": "4.67 µM (inactive)"},
      {"measurement": "GI50", "setting": "MDA-N", "value": "15.4 µM (inactive)"},
      {"measurement": "GI50", "setting": "KM12", "value": "2.99 µM (inactive)"},
      {"measurement": "GI50", "setting": "CCRF-CEM", "value": "1.96 µM (inactive)"},
      {"measurement": "GI50", "setting": "BT-549", "value": "16.1 µM (inactive)"},
      {"measurement": "GI50", "setting": "NCI-H460", "value": "19.3 µM (inactive)"},
      {"measurement": "GI50", "setting": "HCT-116", "value": "6.68 µM (inactive)"},
      {"measurement": "GI50", "setting": "MOLT-4", "value": "2.28 µM (inactive)"},
      {"measurement": "GI50", "setting": "NCI/ADR-RES", "value": "16.5 µM (inactive)"},
      {"measurement": "GI50", "setting": "SF-539", "value": "14.1 µM (inactive)"},
      {"measurement": "GI50", "setting": "ACHN", "value": "15.3 µM (inactive)"},
      {"measurement": "GI50", "setting": "SR", "value": "2.56 µM (inactive)"}
    ]}
  ]
}
